According to patent publication US20240075050A1, “Methods and Compositions for Treating Leucine Rich Repeat Kinase 2 (LRRK2)-Associated Disorder or Condition” (University of Connecticut, priority 2022, published 2024):

Experiments:
[1] = tested on: GBA, α-Synuclein, VPS35, Parkin, PINK, and DJ-1; assay: Protein levels of other PD-associated proteins in HEK 293T cells, Western blot; format: cell-based, human; conditions: tagged proteins, 1 mM, 48 hours
Procedure: FIGS. 2A-2T depicts that AICAr, the precursor of ATIC substrate, regulates LRRK2 expression levels and neuronal toxicity. FIGS. 2A and 2B depict the overexpressed LRRK2 levels in HEK 293T cells upon AICAr treatment. HEK293 cells were transfected with MYC-LRRK2 and treated with or without 1 mM AICAr for 48 hours. LRRK2 levels were analyzed by Western blot. FIGS. 2C and 2D depict the LRRK2 expression levels in SH-SY5Y cells upon AICAr treatment. Human neuroblastoma SH-SY5Y cells were treated with or without 1 mM AICAr for 48 hours. LRRK2 expression levels were analyzed by Western blot. FIGS. 2E and 2F depict the overexpressed (3-glucocerebrosidase (GCase) levels upon AICAr treatment. HEK 293T cells were transfected with V5-GCase and treated with or without 1 mM AICAr for 48 hours. GCase levels were analyzed by Western blot. FIGS. 2G-2N depict the LRRK2 expression levels in primary neurons (FIG. 2G and FIG. 2H), microglia (FIG. 2I and FIG. 2J), astrocytes (FIG. 2K and FIG. 2L) and human fibroblasts (FIG. 2M and FIG. 2N) upon AICAr treatment. Mouse primary cortical neurons, microglia, astrocytes or human fibroblasts from a health control were treated with or without 1 mM AICAr for 48 hours. LRRK2 expression levels were analyzed by Western blot. […] LRRK2 expression levels were analyzed by Western blot. […] Images were quantified by ImageJ software. […]

[2] = tested on: LRRK2; assay: LRRK2 levels in mouse striatal tissue after intracranial AICAr via osmotic pumps, Western blot; format: in vivo
Procedure: Saline injections were performed as controls.
Stereotaxic intracranial injection. Three days before survival surgery, osmotic pumps (ALZET, 1004) were filled with saline, 1 mg/ml or 30 mg/ml AICAr in saline, assembled with brain infusion kits (ALZET, Brain Infusion Kit 2), and incubated in saline at 37° C. 3-month-old mice were anesthetized by isoflurane gas supplemented with 0.5 L/min oxygen. A ˜1.5 cm incision was made midline on the scalp. For mouse striatum injection, one hole was drilled at the following coordinates: anterioposterior=+0.5 mm from bregma; lateral=−2.0 mm from bregma; dorsoventral=−3.5 mm. For mouse substantia nigra pars compacta (SNpc) injection, one hole was drilled at the following coordinates: anterioposterior=−3.2 mm from bregma; lateral=−1.2 mm from bregma; dorsoventral=−4.2 mm. 1 ul LPS (5 ug) or PBS was injected at a rate of 0.2 ul/min using a Hamilton syringe with a 26-gauge blunt needle. After injection, the needle was in place for 5 minutes to minimize backflow. A subcutaneous pocket was made on the animal's back to hold the osmotic pump. The 28-gauge needle from infusion cannulae connected to the osmotic pump with a vinyl catheter tube was inserted into the same hole and then the cannulae was secured to the skull with Loctite 454 (ALZET). The wound was closed with monofilament suture. […]

[3] = tested on: GBA mRNA; assay: GBA mRNA levels by real-time PCR in SH-SY5Y cells; format: cell-based, human; conditions: 2 mM, 24 hours
Procedure: Real-Time PCR (qPCR). SH-SY5Y WT or AUF1-KO cells were treated with or without 2 mM AICAr for 24 hours, and total RNA was extracted from 3×10^5 cells of each treatment using TRIzol™ Reagent (Invitrogen) as per the manufacturer's introductions. Real-Time PCR (qPCR) assay was performed using GoTaq® 2-Step RT-PCR System (Promega) as per the manufacturer's introductions. Briefly, total cDNA was reversely transcribed from RNA pools (1.5 μg RNA in a 10 μl reaction mixture) using random primers. The qPCR reaction was run in CFX96 qPCR detection system (Bio-Rad) with 3 μl cDNA (1:20 dilution) in a 10 μl reaction mixture (Table 3), and set at 95° C. for 2 minutes followed by 40 amplification cycles of 95° C. for 15 seconds, 60° C. for 1 min with a melting curve, 95° C. for 15 seconds, 60° C. for 1 min, a ramp from 60° C. to 95° C. at an 1% rate, and 95° C. for 15 seconds. Melt curves were monitored to assess qPCR amplicons, and critical threshold (Ct) values were collected with an enclosed software. Relative gene expression was analyzed by normalization against Ct values of f-ACTIN (housekeeping gene) and then determined by comparison with expression levels of control sample using the relative expression index (2-ΔΔCt) method.

NC(=O)c1ncn([C@@H]2O[C@H](CO)[C@@H](O)[C@H]2O)c1N [AICAr, 5-aminoimidazole-4-carboxamide riboside]
levels of other PD-associated proteins (GBA, α-Synuclein, VPS35, Parkin, PINK, DJ-1) [1]: no changes | LRRK2 levels in striatal tissues ([2]; WT mice, LPS model, AICAr 2.4 μg/day/animal into striatum, 21 days, Western blot): significant decrease | LRRK2 levels in striatal tissue near the injection sites ([2]; male and female mice, striatum, osmotic minipumps, 72 ug/animal/day, 1 day after injection): dramatically decreased | GBA mRNA levels [3]: no changes
